Results taken from PMC10454375, “Cell-Impermeable Inhibitors Confirm That Intracellular Human Transglutaminase 2 Is Responsible for the Transglutaminase-Associated Cancer Phenotype” (International Journal of Molecular Sciences, 2023).
Peptide text beside a SMILES is read from it. * marks the point of attachment. X1 = C=CC(=O)NCCCCC(NC(=O)OCc1ccccc1)C(=O)N1CCN(C(=O)C(CCC(=O)*)NC(=O)c2cccc3ccccc23)CC1

How the values were obtained:
MDA-MB-468 cells = experiment: Cell proliferation assay, MDA-MB-468; format: cell-based; conditions: concentrations up to 100 µM, 48 h
Protocol: (§1) MDA-MB-468 cells were cultured in Dulbecco’s Modified Eagle Medium (DMEM)/F-12 DMEM, Gibco Laboratories, New York, NY, USA), 10% FBS (Gibco Laboratories, New York, NY, USA), 50 U/mL penicillin, and 50 μg/mL streptomycin (Gibco Laboratories, New York, NY, USA), while MDA-MB-231 and MDA-MB-436 cells were cultured in DMEM High Glucose with/stable L-Glutamine (EuroClone, Pero, MI, Italy), 10% FBS, and antibiotics, all grown at 37 °C and in 5% CO2 humidified atmosphere.
(§2) The compounds were added to the cultures at the concentrations of 25, 50, 75, and 100 μM and 0.1% DMSO represented the negative control. After 48 h, the cells were trypsinized for 2 min at 37 °C, trypsin was inactivated using 1 mL of the recovered supernatants (containing 10% FBS), centrifuged at room temperature 5 min at 1200 rpm, washed with PBS and resuspended in complete medium. Finally, 50 μL of cells were diluted in 500 μL of Count & Viability Reagent (Luminex, Prodotti Gianni, Milan, Italy) and analyzed by MUSE®.
(§3) The experiments were carried out in triplicate and the average ± SD of the percentage of living cells was reported. Statistical analysis was performed calculating p value by a Student’s t-test, two-tailed, with homovariance and significance expressed by (*) p value < 0.05.
(§4) Supplementary cellular evaluation figures
(§5) Concentration (µM) Concentration (µM)
(§6) Figure S10. […]

MDA-MB-231 cells [1] = experiment: Cell proliferation assay, MDA-MB-231; format: cell-based; conditions: concentrations up to 100 µM, 48 h
Protocol: as §1, §2, §3, §4, §5, §6

HaCaT cells = experiment: Cell proliferation, HaCaT; format: cell-based, human; conditions: concentrations up to 100 µM
Protocol: Figure 4 Treatment of cancer cells with cell-permeable and cell-impermeable inhibitors. (A) HaCaT and SCC-13 are epidermis-derived cutaneous squamous cell carcinoma cells that were treated for 10 h with NCEG-RHB prior to imaging using a spinning disc confocal microscope. NCEG-RHB localization is detected adjacent to the nuclei (N) in both cell types and is indicated by red arrows. The HaCaT cell cultures were also stained for 15 min with MitoTracker Green before imaging. MitoTracker Green detects mitochondria membrane proteins inside the cell and the labelling is indicated by green arrows. White scale bars = 100 µm. (B) SCC-13 cells treated with cell-impermeable inhibitor 18 (NCEG2) and cell-permeable inhibitors NC9, AA9, and NCEG-RHB. Scale bars represent 50 µm; (*) p value < 0.001 (C) HaCaT cells treated with cell-impermeable inhibitor 18 (NCEG2) and cell-permeable inhibitors NC9 and AA9. Scale bars represent 50 µm; (*) p value < 0.001. (D) MDA-MB-436 cells treated with cell-impermeable 18 (NCEG2) and with cell-permeable inhibitors NC9, AA9 and NCEG-RHB. Experiments were carried out in triplicate and are represented as average ± SD of the percentage of living cells; (**) p value < 0.01.

MDA-MB-231 cells [2] = experiment: Real-time cell migration assay (xCELLigence RTCA), MDA-MB-231; format: cell-based; conditions: 25 µM, 24 h
Protocol: (§7) We assayed the motility of MDA-MB-436 cells in the presence of vehicle or TG2 inhibitors 18 (NCEG2), 19 (NCEG-RHB), and NC9 at 25 μM concentration with the xCELLigence RTCA system (Real-Time Cell Analyzer System, Acea Biosciences Inc., San Diego, CA, USA). About 3 × 10^5 cells/wells were put into the top chambers of CIM-16 plates and the bottom chambers were filled with medium containing 5% FBS (Gibco Laboratories, New York, NY, USA) as a chemoattractant. Signal detection was done every 15 min for 24 h and each determination was performed in triplicate. Impedance values were expressed as a dimensionless parameter (Cell Index, CI), and values greater than 0.1 were considered positive. The rate of cell migration was also quantified by calculating the steepness, inclination, gradient, and changing rate of the CI curves over time (Slope).
(§8) A Vehicle B 0.025 Vehicle
(§9) C 2.5 Vehicle D 0.15 Vehicle
(§10) Figure S11. Migration assay: A) Dynamic monitoring of the migration of MDA-MB-436 cells.
(§11) We recorded for 24 hours the migration of the cells in the presence only of the vehicle or of the indicated TG2 inhibitors, used at 25 µM concentrations. Data are reported as Cell Index (CI) values ± SD. […] We recorded for 24 hours the migration of the cells in the presence only of the vehicle or of the indicated TG2 inhibitors, used at 25 µM concentrations. […]

MDA-MB-436 cells [3] = experiment: Cell proliferation assay, MDA-MB-436; format: cell-based; conditions: concentrations up to 100 µM, 48 h
Protocol: as §1, §2
The experiments were carried out in triplicate and the average ± SD of the percentage of living cells was reported. […]
Figure 4 Treatment of cancer cells with cell-permeable and cell-impermeable inhibitors. […] NCEG-RHB localization is detected adjacent to the nuclei (N) in both cell types and is indicated by red arrows. […]

MDA-MB-436 cells [4] = experiment: Real-time cell migration assay (xCELLigence RTCA), MDA-MB-436; format: cell-based; conditions: 25 µM, 24 h
Protocol: as §7, §8, §9, §10, §11

With `C=CC(=O)NCCCCC(NC(=O)OCc1ccccc1)C(=O)N1CCN(C(=O)C(CCC(=O)NCC(=O)NCC(=O)NCC(=O)NC(CC(=O)O)C(=O)NC(CC(=O)O)C(=O)NC(CC(=O)O)C(=O)O)NC(=O)c2cccc3ccccc23)CC1` (stereo not drawn) [Compound 18] (X1-GGGDDD-OH; configuration not given here) the “effect on cell proliferation” value (MDA-MB-468 cells) was “did not have any effect on cell proliferation”, the “effect on cell proliferation” value (MDA-MB-231 cells [1]) was “did not have any effect on cell proliferation” and the “effect on cell proliferation” value (HaCaT cells) was “did not have any effect on cell proliferation”. For the same molecule, the “effect on cell migration” value (MDA-MB-231 cells [2]) was “failed to suppress migration”, the “effect on cell proliferation” value (MDA-MB-436 cells [3]) was “did not have any effect on cell proliferation” and the “effect on cell migration” value (MDA-MB-436 cells [4]) was “failed to suppress migration”.
